This passage reports IC50 results from patent US12331054B2, “Perk inhibiting imidazolopyrazine compounds” (HiberCell, Inc., priority 2019, dated 2025).

For experiment [1], the target named is Recombinant human EIF2AK3 (PERK) catalytic domain (amino acids 536-1116) (Homo sapiens (Human), UniProt Q9NZJ5). In words: PERK In Vitro Activity Assay (isolated), TR-FRET kinase assay. Conditions: isolated PERK enzyme, 1.5 μM ATP, read-out: Biochemical IC50. From the text:
PERK In Vitro Activity Assay (isolated):
In vitro Inhibition of PERK Enzyme Activity (isolated) Recombinant human EIF2AK2 (PKR) catalytic domain (amino acids 252-551), EIF2AK3 (PERK) catalytic domain (amino acids 536-1116), GFP-eIF2a substrate, and Terbium-labelled phospho-eIF2a antibody is obtained (Invitrogen, Carlsbad, CA).
Express and purify HIS-SUMO-GCN2 catalytic domain (amino acids 584-1019) from E. coli. Perform TR-FRET kinase assays in the absence or presence of inhibitors in a reaction buffer consisting of 50 mM HEPES, pH 7.5, 10 mM MgCb, 1.0 mM EGTA, and 0.01% Brij-35, and 100-200 nM GFP-eIF2a substrate. […] Add test compound, initiate the reaction by addition of enzyme, and incubate at room temperature for 45 minutes. Stop the reaction by addition of EDTA to a final concentration of 10 mM, add Terbium-labelled phospho-eIF2a antibody at a final concentration of 2 nM, and incubate for 90 minutes. Monitor the resulting fluorescence in an EnVison® Multilabel reader (PerkinElmer, Waltham, MA). Determine TR-FRET ratios and the resulting IC50 values using a 4-parameter nonlinear logistic equation as shown: Y=(A+((B−A)/(1+(C/x)AD)))) where, Y=% specific inhibition, A=Bottom of the curve, B=Top of the curve, C=absolute IC50 (concentration causing 50% inhibition), and D=hill slope.

Experiment [2] deals with eIF2α in HEK293-EGFP-eIF2α cells. The experiment is described as follows: PERK Cellular Assay (HEK293-EGFP-eIF2α cells, tunicamycin-induced ER stress, TR-FRET). It counts as cell-based. Conditions: tunicamycin 2 hours. The procedure:
Stable cell lines were created in HEK293 cells using lentiviral particles harboring an expression vector for GFP-eIF2α. Cells were selected using puromycin and enriched using fluorescence activated cell sorting against GFP. HEK293-EGFP-eIF2α cells were plated at 5000 cells/well in 384-well assay plates and incubated overnight at 37° C., 5% CO2. Inhibitor compounds were added to the wells by Echo acoustic dispensing and incubated for 30 minutes at 37° C., 5% CO2 prior to induction of ER stress by addition of tunicamycin to […] for 2 hours. Cells were lysed and TR-FRET was measured in an EnVision plate reader (PerkinElmer). FRET ratio data was normalized to signal from lysates treated with DMSO vehicle control and plotted as percent inhibition against 10-point; 3-fold dilution series of inhibitors. IC50 values were calculated using 4-parameter logistical fitting in XLFit.

Recombinant human EIF2AK3 (PERK) catalytic domain (amino acids 536-1116), sequence (Q9NZJ5 536-1116): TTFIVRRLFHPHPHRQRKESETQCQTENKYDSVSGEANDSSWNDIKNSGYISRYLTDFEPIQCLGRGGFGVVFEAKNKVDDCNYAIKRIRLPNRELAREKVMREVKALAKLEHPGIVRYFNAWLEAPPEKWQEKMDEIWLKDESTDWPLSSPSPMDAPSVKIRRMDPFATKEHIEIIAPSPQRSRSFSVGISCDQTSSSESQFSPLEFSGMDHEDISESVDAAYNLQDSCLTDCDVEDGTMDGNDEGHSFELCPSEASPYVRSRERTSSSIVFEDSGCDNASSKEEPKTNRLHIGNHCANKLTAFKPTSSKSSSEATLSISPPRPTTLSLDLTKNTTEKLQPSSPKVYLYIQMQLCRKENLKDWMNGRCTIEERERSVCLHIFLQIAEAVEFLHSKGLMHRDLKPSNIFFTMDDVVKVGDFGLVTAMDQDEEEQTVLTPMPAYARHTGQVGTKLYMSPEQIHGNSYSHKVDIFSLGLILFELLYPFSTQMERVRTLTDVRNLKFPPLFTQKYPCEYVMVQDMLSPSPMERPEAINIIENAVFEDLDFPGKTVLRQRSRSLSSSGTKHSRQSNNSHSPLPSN

In the case of `[2H]C([2H])([2H])c1nc(-c2ccc(NC(=O)C(O)c3cccc(F)c3)nc2C)c2c(N)nc(C)cn12` (centres unmarked) [Example 171, N-[5-[8-amino-6-methyl-3-(trideuteriomethyl)imidazo[1,5-a]pyrazin-1-yl]-6-methyl-2-pyridyl]-2-(3-fluorophenyl)-2-hydroxy-acetamide], the results for the IC50 in experiment [1] and in experiment [2] were 1000 to 2000 nM and more than 5000 nM, respectively.
The corresponding values for `[2H]C([2H])([2H])c1nc(-c2ccc(NC(=O)C(O)c3cccc(C(F)(F)F)c3)cc2C)c2c(N)nc(C)cn12` (centres unmarked) [Example 14, N-[4-[8-amino-6-methyl-3-(trideuteriomethyl)imidazo[1,5-a]pyrazin-1-yl]-3-methyl-phenyl]-2-hydroxy-2-[3-(trifluoromethyl)phenyl]acetamide] are 1 to 25 nM and 26 to 50 nM.
For `[2H]C([2H])([2H])c1nc(-c2ccc(NC(=O)C(O)c3cccc(C(F)(F)F)c3)c(F)c2F)c2c(N)ncc(Cl)n12` (centres unmarked) [Example 152, N-[4-[8-amino-5-chloro-3-(trideuteriomethyl)imidazo[1,5-a]pyrazin-1-yl]-2,3-difluoro-phenyl]-2-hydroxy-2-[3-(trifluoromethyl)phenyl]acetamide], the IC50 in experiment [1] and in experiment [2] was 1 to 25 nM throughout.
Regarding `Cc1cc(NC(=O)C(O)c2cccc(Cl)c2)ccc1-c1nc(C)n2c(C)cnc(N)c12` (centres unmarked) [Example 38, N-(4-(8-amino-3,5-dimethylimidazo [1,5-a]pyrazin-1-yl)-3-methyl-phenyl)-2-(3-chlorophenyl)-2-hydroxyacetamide], the IC50 in experiment [1] and in experiment [2] was 1 to 25 nM each time.
Regarding `[2H]C([2H])([2H])c1nc(-c2ccc(NC(=O)C(O)c3cccc(C(F)(F)F)c3)nc2C)c2c(N)ncc(C)n12` (centres unmarked) [Example 175, N-[5-[8-amino-5-methyl-3-(trideuteriomethyl)imidazo[1,5-a]pyrazin-1-yl]-6-methyl-2-pyridyl]-2-hydroxy-2-[3-(trifluoromethyl)phenyl]acetamide], the values for the concentration for half-maximal inhibition (IC50) in experiment [1] and in experiment [2] were 1 to 25 nM and 101 to 250 nM, respectively.
As to `[2H]C([2H])([2H])c1nc(-c2ccc(NC(=O)C(O)c3cc(F)cc(C(F)(F)F)c3)cc2F)c2c(N)ncc(Cl)n12` (centres unmarked) [Example 114, N-[4-[8-amino-5-chloro-3-(trideuteriomethyl)imidazo[1,5-a]pyrazin-1-yl]-3-fluoro-phenyl]-2-[3-fluoro-5-(trifluoromethyl)phenyl]-2-hydroxy-acetamide], the IC50 in experiment [1] and in experiment [2] was 1 to 25 nM in each case.
With `[2H]C([2H])([2H])c1nc(-c2ccc(NC(=O)C(O)c3cccc(F)c3)c(F)c2F)c2c(N)nc(C)cn12` (centres unmarked) [Example 130, N-[4-[8-amino-6-methyl-3-(trideuteriomethyl)imidazo[1,5-a]pyrazin-1-yl]-2,3-difluoro-phenyl]-2-(3-fluoro-phenyl)-2-hydroxy-acetamide], the IC50 in experiment [1] and in experiment [2] was 1 to 25 nM each time.
Regarding `[2H]C([2H])([2H])c1nc(-c2ccc(NC(=O)C(O)c3cc(F)cc(F)c3)cc2C)c2c(N)nc(C)cn12` (centres unmarked) [Example 44, N-[4-[8-amino-6-methyl-3-(trideuteriomethyl)imidazo[1,5-a]pyrazin-1-yl]-3-methyl-phenyl]-2-(3,5-difluoro-phenyl)-2-hydroxy-acetamide], the results for the IC50 in experiment [1] and in experiment [2] were 1 to 25 nM and 101 to 250 nM, respectively.
The corresponding values for `Cc1cnc(N)c2c(-c3ccc(NC(=O)C(O)c4cccc(F)c4)c(F)c3)nc(C)n12` (centres unmarked) [Example 124, N-(4-(8-amino-3,5-dimethyl-imidazo[1,5-a]pyrazin-1-yl)-2-fluorophenyl)-2-(3-fluorophenyl)-2-hydroxy-acetamide] are 26 to 50 nM and 501 to 1000 nM.
As to `[2H]C([2H])([2H])c1nc(-c2ccc(NC(=O)C(O)c3cccc(F)c3)c(F)c2)c2c(N)ncc(C)n12` (centres unmarked) [Example 123, N-[4-[8-amino-5-methyl-3-(trideuteriomethyl)imidazo[1,5-a]pyrazin-1-yl]-2-fluoro-phenyl]-2-(3-fluorophenyl)-2-hydroxy-acetamide], the IC50 in experiment [1] and in experiment [2] was 1 to 25 nM throughout.

Broadly, the IC50 is the midpoint of a concentration-inhibition curve.
